Toxic doses and inconclusive results are not listed. Cut-off read from the data, not from the text of the source: active = T/C of 150% or more; inactive = T/C below 125%.
Test system: L1210 leukemia ip in BDF1 mice, survival T/C
Assay: NCI In Vivo Anticancer Drug Screen. Data for tumor model L1210 Leukemia (intraperitoneal) in B6D2F1 (BDF1) mice
Conditions: endpoint: mean survival time, higher = longer survival
In short: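 Each compound was tested against a transplantable tumor grown in mice. The endpoint was survival, with treated animals benchmarked against vehicle controls as a simple ratio.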

[1] = dose: 100.0 mg/kg/injection, schedule: Q04DX003 (ip), vehicle: Klucel (hydroxypropylcellulose) (HPC)
[2] = dose: 200.0 mg/kg/injection, schedule: Q04DX003 (ip), vehicle: Klucel (hydroxypropylcellulose) (HPC)
[3] = dose: 400.0 mg/kg/injection, schedule: Q04DX003 (ip), vehicle: Klucel (hydroxypropylcellulose) (HPC)
[4] = dose: 100.0 mg/kg/injection, schedule: Q01DX001 (ip), vehicle: Klucel (hydroxypropylcellulose) (HPC)
[5] = dose: 200.0 mg/kg/injection, schedule: Q01DX001 (ip), vehicle: Klucel (hydroxypropylcellulose) (HPC)
[6] = dose: 400.0 mg/kg/injection, schedule: Q01DX001 (ip), vehicle: Klucel (hydroxypropylcellulose) (HPC)
[7] = dose: 100.0 mg/kg/injection, schedule: Q01DX009 (ip), vehicle: Klucel (hydroxypropylcellulose) (HPC)
[8] = dose: 200.0 mg/kg/injection, schedule: Q01DX009 (ip), vehicle: Klucel (hydroxypropylcellulose) (HPC)
[9] = dose: 400.0 mg/kg/injection, schedule: Q01DX009 (ip), vehicle: Klucel (hydroxypropylcellulose) (HPC)
[10] = dose: 100.0 mg/kg/injection, schedule: Q01DX001 (ip), vehicle: saline
[11] = dose: 200.0 mg/kg/injection, schedule: Q01DX001 (ip), vehicle: saline
[12] = dose: 400.0 mg/kg/injection, schedule: Q01DX001 (ip), vehicle: saline
[13] = dose: 100.0 mg/kg/injection, schedule: Q01DX001 (ip), vehicle: carboxymethylcellulose (CMC)
[14] = dose: 200.0 mg/kg/injection, schedule: Q01DX001 (ip), vehicle: carboxymethylcellulose (CMC)
[15] = dose: 400.0 mg/kg/injection, schedule: Q01DX001 (ip), vehicle: carboxymethylcellulose (CMC)

Measured: T/C

CC#N.CC#N.[Cl][Pt][Cl]
inactive: dose: 6.25 mg/kg/injection, schedule: Q04DX003 (ip), vehicle: water 119 % of control | dose: 12.5 mg/kg/injection, schedule: Q04DX003 (ip), vehicle: water 117 % of control | dose: 25.0 mg/kg/injection, schedule: Q04DX003 (ip), vehicle: water 122 % of control | dose: 50.0 mg/kg/injection, schedule: Q04DX003 (ip), vehicle: water 118 % of control

CCCCOCCOP(=O)(OCCOCCCC)OCCOCCCC
inactive: [1] 98 % of control | [2] 98 % of control | [3] 101 % of control

Cc1ccc([N+](=O)[O-])cc1NC(=O)Sc1ccc(C(C)(C)C)cc1C
inactive: dose: 100.0 mg/kg/injection, schedule: Q04DX002 (ip), vehicle: saline 101 % of control | dose: 200.0 mg/kg/injection, schedule: Q04DX002 (ip), vehicle: saline 88 % of control | dose: 400.0 mg/kg/injection, schedule: Q04DX002 (ip), vehicle: saline 101 % of control

Cc1ccc(N=Nc2c(O)ccc3ccccc23)c([N+](=O)[O-])c1
inactive: dose: 100.0 mg/kg/injection, schedule: Q01DX001 (ip), vehicle: other 96 % of control | dose: 100.0 mg/kg/injection, schedule: Q04DX003 (ip), vehicle: other 95 % of control | dose: 200.0 mg/kg/injection, schedule: Q01DX001 (ip), vehicle: other 95 % of control | dose: 200.0 mg/kg/injection, schedule: Q04DX003 (ip), vehicle: other 91 % of control | dose: 400.0 mg/kg/injection, schedule: Q01DX001 (ip), vehicle: other 96 % of control | dose: 400.0 mg/kg/injection, schedule: Q04DX003 (ip), vehicle: other 93 % of control

O=C(C[n+]1ccccc1Br)c1ccc2ccccc2c1
inactive: dose: 9.38 mg/kg/injection, schedule: Q01DX001 (ip), vehicle: other 104 % of control | dose: 18.75 mg/kg/injection, schedule: Q01DX001 (ip), vehicle: other 103 % of control | dose: 37.5 mg/kg/injection, schedule: Q01DX001 (ip), vehicle: other 103 % of control

CC(=O)OCC(C)(COC(C)=O)[N+](=O)[O-]
inactive: [1] 95 % of control | [2] 92 % of control | [3] 97 % of control

CCCCCCCCCCCCCC[n+]1ccc(C#N)cc1
inactive: dose: 7.5 mg/kg/injection, schedule: Q04DX003 (ip), vehicle: saline 101 % of control | dose: 15.0 mg/kg/injection, schedule: Q04DX003 (ip), vehicle: saline 95 % of control | dose: 30.0 mg/kg/injection, schedule: Q04DX003 (ip), vehicle: saline 96 % of control

O=C(c1ccccc1)C(c1ccccc1)C(C[N+](=O)[O-])c1ccccc1 (stereo unspecified)
inactive: dose: 100.0 mg/kg/injection, schedule: Q01DX009 (ip), vehicle: saline with Tween-80 88 % of control | dose: 200.0 mg/kg/injection, schedule: Q01DX009 (ip), vehicle: saline with Tween-80 90 % of control | dose: 400.0 mg/kg/injection, schedule: Q01DX009 (ip), vehicle: saline with Tween-80 96 % of control

Nc1ncc(-c2ccccc2)nn1 (tested in a mixture with another compound)
inactive: [4] 90 % of control | [5] 90 % of control | [6] 116 % of control

COc1ccccc1C(C#N)NCCCNC(C#N)c1ccccc1OC (stereo unspecified)
inactive: dose: 10.0 mg/kg/injection, schedule: Q01DX001 (ip), vehicle: saline 89 % of control | dose: 20.0 mg/kg/injection, schedule: Q01DX001 (ip), vehicle: saline 110 % of control

CCC(CC)C(=O)NC(=O)NC(C)=O
inactive: dose: 75.0 mg/kg/injection, schedule: Q01DX001 (ip), vehicle: Klucel (hydroxypropylcellulose) (HPC) 91 % of control | dose: 150.0 mg/kg/injection, schedule: Q01DX001 (ip), vehicle: Klucel (hydroxypropylcellulose) (HPC) 102 % of control | dose: 300.0 mg/kg/injection, schedule: Q01DX001 (ip), vehicle: Klucel (hydroxypropylcellulose) (HPC) 88 % of control

O=C(O)c1ccc2c(c1)OCO2
inactive: [7] 97 % of control | [8] 92 % of control | [9] 99 % of control

Cc1nc2c(N)nnc(N)c2nc1C
inactive: dose: 25.0 mg/kg/injection, schedule: Q01DX001 (ip), vehicle: Klucel (hydroxypropylcellulose) (HPC) 97 % of control | dose: 50.0 mg/kg/injection, schedule: Q01DX001 (ip), vehicle: Klucel (hydroxypropylcellulose) (HPC) 93 % of control | [4] 95 % of control | [7] 100 % of control

CCOC(=O)C(Br)(C(=O)OCC)C(=O)c1cc(-c2ccc(Cl)c(Cl)c2)nc2c(Cl)cc(Cl)cc12
inactive: [4] 103 % of control | [7] 95 % of control | [5] 111 % of control | [8] 96 % of control | [6] 105 % of control | [9] 95 % of control

NCC(=O)Nc1ccc(S(=O)(=O)c2ccc(NC(=O)CN)cc2)cc1
inactive: [10] 104 % of control | [11] 101 % of control | [12] 98 % of control

CC(=O)c1ccc(Br)c2ccccc12
inactive: dose: 50.0 mg/kg/injection, schedule: Q04DX003 (ip), vehicle: saline with Tween-80 95 % of control | dose: 100.0 mg/kg/injection, schedule: Q04DX003 (ip), vehicle: saline with Tween-80 100 % of control | dose: 200.0 mg/kg/injection, schedule: Q04DX003 (ip), vehicle: saline with Tween-80 97 % of control | dose: 400.0 mg/kg/injection, schedule: Q04DX003 (ip), vehicle: saline with Tween-80 94 % of control

O=c1[nH]c(=S)c2ncn(C3OC(CO)C(O)C3O)c2[nH]1 (stereo unspecified)
inactive: [10] 107 % of control | [11] 101 % of control | [12] 104 % of control

COc1ccc(OC(=O)Nc2ccc(Cl)cc2OC)cc1
inactive: [7] 92 % of control | [8] 95 % of control

FC(F)(F)c1cccc(NC(=S)SCc2ccccc2)c1
inactive: dose: 75.0 mg/kg/injection, schedule: Q04DX003 (ip), vehicle: saline with Tween-80 95 % of control | dose: 150.0 mg/kg/injection, schedule: Q04DX003 (ip), vehicle: saline with Tween-80 98 % of control | dose: 300.0 mg/kg/injection, schedule: Q04DX003 (ip), vehicle: saline with Tween-80 102 % of control

Cc1ccc(NC(=O)Nc2ccc(C)cc2C)cc1
inactive: [13] 90 % of control | [14] 98 % of control | [15] 92 % of control

NNCC(F)(F)F
inactive: [10] 101 % of control

O=Nc1ccc(O)c(=O)cc1
inactive: dose: 1.0 mg/kg/injection, schedule: Q01DX009 (ip), vehicle: saline 90 % of control | dose: 1.0 mg/kg/injection, schedule: Q04DX003 (ip), vehicle: saline 100 % of control | dose: 2.0 mg/kg/injection, schedule: Q01DX009 (ip), vehicle: saline 90 % of control | dose: 2.0 mg/kg/injection, schedule: Q04DX003 (ip), vehicle: saline 97 % of control | dose: 4.0 mg/kg/injection, schedule: Q01DX009 (ip), vehicle: saline 97 % of control | dose: 4.0 mg/kg/injection, schedule: Q04DX003 (ip), vehicle: saline 109 % of control

N#CCCC[P+](c1ccccc1)(c1ccccc1)c1ccccc1
inactive: dose: 75.0 mg/kg/injection, schedule: Q01DX001 (ip), vehicle: other 97 % of control | dose: 100.0 mg/kg/injection, schedule: Q04DX002 (ip), vehicle: Klucel (hydroxypropylcellulose) (HPC) 98 % of control

O=C1CCCc2c1cc(C1CCCC1)c1ccccc21
inactive: [13] 92 % of control | [14] 95 % of control | [15] 98 % of control

c1ccc(Sc2ncnc3nc[nH]c23)nc1
inactive: dose: 267.0 mg/kg/injection, schedule: Q01DX001 (ip), vehicle: saline with Tween-80 110 % of control

S=C1NC(c2cccs2)N2C(=S)NC(c3cccs3)N12 (stereo unspecified)
inactive: dose: 100.0 mg/kg/injection, schedule: Q01DX009 (ip), vehicle: gum acacia 96 % of control | dose: 100.0 mg/kg/injection, schedule: Q04DX003 (ip), vehicle: gum acacia 92 % of control | dose: 200.0 mg/kg/injection, schedule: Q01DX009 (ip), vehicle: gum acacia 91 % of control | dose: 200.0 mg/kg/injection, schedule: Q04DX003 (ip), vehicle: gum acacia 97 % of control | dose: 400.0 mg/kg/injection, schedule: Q01DX009 (ip), vehicle: gum acacia 98 % of control | dose: 400.0 mg/kg/injection, schedule: Q04DX003 (ip), vehicle: gum acacia 97 % of control

— PubChem BioAssay AID248 (DTP/NCI, 2004)
